This note sets out measurements from the NIST ThermoML archive (doi:10.1021/je100861u).

Numbers after ± are expanded uncertainties.

The conditions of data set [1]: Liquid; Distillation.
A short description of data set [2]: refractive index (Na D-line) (dimensionless). The following applies: 293.15 K; 101.33 kPa; Liquid; Standard Abbe refractometry.

What is called refractive index is a measure of how strongly the sample bends light. Take `CC(=O)C(C)O` (centres undefined) [2,3-butanolone]: the Normal boiling temperature in data set [1] came to 148.38 ± 0.54 °C. In data set [2], the refractive index turned out to be 1.4198 ± 0.0008.
For the compound `CCCCOC(C)=O` [butyl ethanoate], the Normal boiling temperature in data set [1] was determined as 125.96 ± 0.5 °C. Besides, the refractive index in data set [2] is 1.3941 ± 0.0007.
